According to patent US8975398B2, “NAMPT inhibitors” (AbbVie Inc., priority 2012, dated 2015):

Tested on: PC3 cells
Assay: NAMPT Cell Proliferation Assay (Cell Titer Glo; also performed in the presence of 0.3 mM nicotinamide mononucleotide)
Type: cell-based
Details: Homo sapiens, PC-3, 120 h, 5 days incubation, cell viability by Cell Titer Glo
In short: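 Following overnight attachment in RPMI with 10% heat-inactivated FBS, PC3 cells at 500 per well receive compounds spanning 10 μM down to 1×10^−5 μM. Growth is assessed by luminescent viability read after 5 days.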

IC50 [nM]	Structure (SMILES)
782	C=CCNC(=O)c1ccc(NC(=O)C2CN(c3cccnn3)C2)cc1 [Example 1012, N-[4-(prop-2-en-1-ylcarbamoyl)phenyl]-1-(pyridazin-3-yl)azetidine-3-carboxamide]
5.36	O=C(NCc1ccccc1)c1ccc(NC(=O)C2CN(c3cccnn3)C2)cc1 [Example 1006, N-[4-(benzylcarbamoyl)phenyl]-1-(pyridazin-3-yl)azetidine-3-carboxamide]
809	CC1(NC(=O)c2ccc(NC(=O)C3CN(c4cccnn4)C3)cc2)CC1 [Example 993, N-{4-[(1-methylcyclopropyl)carbamoyl]phenyl}-1-(pyridazin-3-yl)azetidine-3-carboxamide]
5.53	CC(C)(C)CNC(=O)c1ccc(NC(=O)C2CN(c3cccnn3)C2)cc1 [Example 973, N-{4-[(2,2-dimethylpropyl)carbamoyl]phenyl}-1-(pyridazin-3-yl)azetidine-3-carboxamide]
1060	C[C@H](NC(=O)c1ccc(NC(=O)C2CN(c3cccnn3)C2)cc1)C1CC1 [Example 981, N-(4-{[(1S)-1-cyclopropylethyl]carbamoyl}phenyl)-1-(pyridazin-3-yl)azetidine-3-carboxamide]
71.1	Cn1nc(C(F)(F)F)cc1-c1ccc(NC(=O)C2CN(c3cccnn3)C2)cc1 [Example 874, N-{4-[1-methyl-3-(trifluoromethyl)-1H-pyrazol-5-yl]phenyl}-1-(pyridazin-3-yl)azetidine-3-carboxamide]
12.4	O=C(NCC1CCC1)c1ccc(NC(=O)C2CN(c3cccnn3)C2)cc1 [Example 977, N-{4-[(cyclobutylmethyl)carbamoyl]phenyl}-1-(pyridazin-3-yl)azetidine-3-carboxamide]
7470	CN1CCC(NC(=O)c2ccc(NC(=O)C3CN(c4cccnn4)C3)cc2)CC1 [Example 986, N-{4-[(1-methylpiperidin-4-yl)carbamoyl]phenyl}-1-(pyridazin-3-yl)azetidine-3-carboxamide]
6810	O=C(NCC1COC1)c1ccc(NC(=O)C2CN(c3cccnn3)C2)cc1 [Example 990, N-{4-[(oxetan-3-ylmethyl)carbamoyl]phenyl}-1-(pyridazin-3-yl)azetidine-3-carboxamide]
2.63	CCC(=O)N1CCC(Cc2ccc(NC(=O)C3CN(c4cccnn4)C3)cc2)CC1 [Example 958, N-{4-[(1-propanoylpiperidin-4-yl)methyl]phenyl}-1-(pyridazin-3-yl)azetidine-3-carboxamide]
7.6	COCC(=O)N1CCC(Cc2ccc(NC(=O)C3CN(c4cccnn4)C3)cc2)CC1 [Example 943, N-(4-{[1-(methoxyacetyl)piperidin-4-yl]methyl}phenyl)-1-(pyridazin-3-yl)azetidine-3-carboxamide]
93.5	O=C(NCCC(F)(F)F)c1ccc(NC(=O)C2CN(c3cccnn3)C2)cc1 [Example 997, 1-(pyridazin-3-yl)-N-{4-[(3,3,3-trifluoropropyl)carbamoyl]phenyl}azetidine-3-carboxamide]
602	O=C(NCC1CCOC1)c1ccc(NC(=O)C2CN(c3cccnn3)C2)cc1 (stereo not shown) [Example 989, 1-(pyridazin-3-yl)-N-{4-[(tetrahydrofuran-3-ylmethyl)carbamoyl]phenyl}azetidine-3-carboxamide]
2.77	O=C(Nc1ccc(CC2CCN(C(=O)c3nccs3)CC2)cc1)C1CN(c2cccnn2)C1 [Example 951, 1-(pyridazin-3-yl)-N-(4-{[1-(1,3-thiazol-2-ylcarbonyl)piperidin-4-yl]methyl}phenyl)azetidine-3-carboxamide]
609	CC[C@@H](C)NC(=O)c1ccc(NC(=O)C2CN(c3cccnn3)C2)cc1 [Example 987, N-{4-[(2R)-butan-2-ylcarbamoyl]phenyl}-1-(pyridazin-3-yl)azetidine-3-carboxamide]
3.9	O=C(Nc1ccc(CC2CCN(C(=O)c3cncs3)CC2)cc1)C1CN(c2cccnn2)C1 [Example 927, 1-(pyridazin-3-yl)-N-(4-{[1-(1,3-thiazol-5-ylcarbonyl)piperidin-4-yl]methyl}phenyl)azetidine-3-carboxamide]
1.17	CC(C)(C)Cn1cc(-c2ccc(NC(=O)C3CN(c4cccnn4)C3)cn2)cn1 [Example 924, N-{6-[1-(2,2-dimethylpropyl)-1H-pyrazol-4-yl]pyridin-3-yl}-1-(pyridazin-3-yl)azetidine-3-carboxamide]
113	CC1(NC(=O)c2ccc(NC(=O)C3CN(c4cccnn4)C3)cc2)CCC1 [Example 1011, N-{4-[(1-methylcyclobutyl)carbamoyl]phenyl}-1-(pyridazin-3-yl)azetidine-3-carboxamide]
1280	CN1CCCC(NC(=O)c2ccc(NC(=O)C3CN(c4cccnn4)C3)cc2)C1 (stereo not shown) [Example 998, N-{4-[(1-methylpiperidin-3-yl)carbamoyl]phenyl}-1-(pyridazin-3-yl)azetidine-3-carboxamide]
1070	CC[C@H](C)NC(=O)c1ccc(NC(=O)C2CN(c3cccnn3)C2)cc1 [Example 978, N-{4-[(2S)-butan-2-ylcarbamoyl]phenyl}-1-(pyridazin-3-yl)azetidine-3-carboxamide]

More lines, now with the values behind:

Structure (SMILES)	IC50 [nM]
Cc1ccc(N2CC(C(=O)Nc3ccc(O[C@@H]4CCN(C(=O)C(C)C)C4)cc3)C2)nn1 [Example 916, N-(4-{[(3R)-1-(2-methylpropanoyl)pyrrolidin-3-yl]oxy}phenyl)-1-(6-methylpyridazin-3-yl)azetidine-3-carboxamide]	646
O=C(NC1CN2CCC1CC2)c1ccc(NC(=O)C2CN(c3cccnn3)C2)cc1 (stereo not shown) [Example 988, N-[4-(1-azabicyclo[2.2.2]oct-3-ylcarbamoyl)phenyl]-1-(pyridazin-3-yl)azetidine-3-carboxamide]	1240
O=C(Nc1ccc(CC2CCN(C(=O)C3CCC3)CC2)cc1)C1CN(c2cccnn2)C1 [Example 960, N-(4-{[1-(cyclobutylcarbonyl)piperidin-4-yl]methyl}phenyl)-1-(pyridazin-3-yl)azetidine-3-carboxamide]	2.86
O=C(N[C@H]1CCN(c2cccnn2)C1)c1ccc(C2CCN(C(=O)c3ccccc3F)CC2)o1 [Example 907, 5-[1-(2-fluorobenzoyl)piperidin-4-yl]-N-[(3S)-1-(pyridazin-3-yl)pyrrolidin-3-yl]furan-2-carboxamide]	6750
Cc1ccc(N2CC[C@H](C(=O)Nc3ccc(C4CCN(C(=O)c5ccccc5)CC4)cc3)C2)nn1 [Example 893, (3S)—N-[4-(1-benzoylpiperidin-4-yl)phenyl]-1-(6-methylpyridazin-3-yl)pyrrolidine-3-carboxamide]	681
O=C(Nc1ccc(CC2CCN(C(=O)c3ccno3)CC2)cc1)C1CN(c2cccnn2)C1 [Example 953, N-(4-{[1-(1,2-oxazol-5-ylcarbonyl)piperidin-4-yl]methyl}phenyl)-1-(pyridazin-3-yl)azetidine-3-carboxamide]	3.34
O=C(N[C@H]1CCN(c2cccnn2)C1)c1ccc(C2CCN(C(=O)CC3CC3)CC2)s1 [Example 1018, 5-[1-(cyclopropylacetyl)piperidin-4-yl]-N-[(3S)-1-(pyridazin-3-yl)pyrrolidin-3-yl]thiophene-2-carboxamide]	716
CN(C)CCc1ccc(NC(=O)c2ccc(NC(=O)C3CN(c4cccnn4)C3)cc2)cc1 [Example 1021, N-[4-({4-[2-(dimethylamino)ethyl]phenyl}carbamoyl)phenyl]-1-(pyridazin-3-yl)azetidine-3-carboxamide]	47.7
O=C(Nc1ccc(-c2cc(C(F)(F)F)nn2-c2ccccc2)cc1)C1CN(c2cccnn2)C1 [Example 923, N-{4-[1-phenyl-3-(trifluoromethyl)-1H-pyrazol-5-yl]phenyl}-1-(pyridazin-3-yl)azetidine-3-carboxamide]	69.4
CCCC(C)C(=O)N1CCC(Cc2ccc(NC(=O)C3CN(c4cccnn4)C3)cc2)CC1 (stereo not shown) [Example 934, N-(4-{[1-(2-methylpentanoyl)piperidin-4-yl]methyl}phenyl)-1-(pyridazin-3-yl)azetidine-3-carboxamide]	2.45
Cc1ccc(N2CC(C(=O)Nc3ccc(C4CCN(C(=O)c5ccccc5)CC4)cc3)C2)cn1 [Example 876, N-[4-(1-benzoylpiperidin-4-yl)phenyl]-1-(6-methylpyridin-3-yl)azetidine-3-carboxamide]	29.2
O=C(Nc1ccc(CC2CCN(C(=O)CC(F)(F)F)CC2)cc1)C1CN(c2cccnn2)C1 [Example 968, 1-(pyridazin-3-yl)-N-(4-{[1-(3,3,3-trifluoropropanoyl)piperidin-4-yl]methyl}phenyl)azetidine-3-carboxamide]	3.7
Cc1ccsc1C(=O)N1CCC(Cc2ccc(NC(=O)C3CN(c4cccnn4)C3)cc2)CC1 [Example 940, N-[4-({1-[(3-methylthiophen-2-yl)carbonyl]piperidin-4-yl}methyl)phenyl]-1-(pyridazin-3-yl)azetidine-3-carboxamide]	1.97
O=C(Nc1ccc(CC2CCN(C(=O)c3ccoc3)CC2)cc1)C1CN(c2cccnn2)C1 [Example 955, N-(4-{[1-(furan-3-ylcarbonyl)piperidin-4-yl]methyl}phenyl)-1-(pyridazin-3-yl)azetidine-3-carboxamide]	5.97
CCCCC(=O)N1CCC(Cc2ccc(NC(=O)C3CN(c4cccnn4)C3)cc2)CC1 [Example 961, N-{4-[(1-pentanoylpiperidin-4-yl)methyl]phenyl}-1-(pyridazin-3-yl)azetidine-3-carboxamide]	5.57
O=C(Nc1ccc(CC2CCN(C(=O)c3ccccc3F)CC2)cc1)C1CN(c2cccnn2)C1 [Example 896, N-(4-{[1-(2-fluorobenzoyl)piperidin-4-yl]methyl}phenyl)-1-(pyridazin-3-yl)azetidine-3-carboxamide]	1.09
CCCC(=O)N1CCC(Cc2ccc(NC(=O)C3CN(c4cccnn4)C3)cc2)CC1 [Example 959, N-{4-[(1-butanoylpiperidin-4-yl)methyl]phenyl}-1-(pyridazin-3-yl)azetidine-3-carboxamide]	2.33
